Experimental data reported in paper PMC6471062, “Suppression of the Ubiquitin Pathway by Small Molecule Binding to Ubiquitin Enhances Doxorubicin Sensitivity of the Cancer Cells” (Molecules, 2019).
Where two headings read alike, the source gives them in different places.

What was measured:
[1] = biological target: UCHL1 (Homo sapiens); assay: Deubiquitination assay, cleavage of GST-Ubiquitin-HA by UCHL1 (SDS-PAGE band intensity); type: biochemical
Description: (§1) For in vitro ubiquitination assays, 500 µM of ubiquitin was used for each ubiquitination reaction as described previously, in the absence or presence of 50–500 µM of CR. […] The generation of GST-ubiquitin from GST-Ubiquitin-HA as the mobility shifts were analyzed on 12.5% SDS-PAGE visualized by Coomassie blue staining. Band intensities were quantified by ImageJ [55] and used to generate the IC50 curves (log inhibitor vs. normalized response with variable slope) by GraphPad Prism version 6.0 for Windows (GraphPad Software, San Diego, CA, USA, www.graphpad.com).

[2] = biological target: ubiquitin (Homo sapiens, UniProt P0CG47); assay: Intrinsic fluorescence quenching assay of ubiquitin; conditions: 50 µM ubiquitin, 0–500 µM compound, ex 274 nm / em 305 nm; read-out: Kd, dissociation constant upon binding to ubiquitin
Description: Intrinsic fluorescence quenching assays were performed as described previously. Briefly, intrinsic fluorescence quenching of ubiquitin by indicated compounds was observed by measuring the excitation and emission wavelength at 274 nm and 305 nm respectively of the mixture of 50 µM purified ubiquitin and 0–500 µM compound. Data were fitted to nonlinear regression curves with the equation described previously. F = −∆ε·[PC] + Fo(3) b = (Po + Co + Kd)(4) c = Po·Co(5) [PC] = [b − (b^2 − 4·c)^1/2]/2(6) where Fo and F are the normalized fluorescence intensity of the mixture of ubiquitin without the compound and with different concentrations of the compound, respectively. ∆ε is a difference in the extinction coefficient of the compound between their free and complex forms. [PC] is the concentration of protein/compound complex. Po and Co are the added concentration of ubiquitin and the compound, respectively in each experiment. Kd is the dissociation constant.

[3] = biological target: USP5 (Homo sapiens); assay: Deubiquitination assay, cleavage of GST-Ubiquitin-HA by USP5 (SDS-PAGE band intensity); type: biochemical
Sequence of USP5 (Homo sapiens) (P45974 2-858, other chains not shown): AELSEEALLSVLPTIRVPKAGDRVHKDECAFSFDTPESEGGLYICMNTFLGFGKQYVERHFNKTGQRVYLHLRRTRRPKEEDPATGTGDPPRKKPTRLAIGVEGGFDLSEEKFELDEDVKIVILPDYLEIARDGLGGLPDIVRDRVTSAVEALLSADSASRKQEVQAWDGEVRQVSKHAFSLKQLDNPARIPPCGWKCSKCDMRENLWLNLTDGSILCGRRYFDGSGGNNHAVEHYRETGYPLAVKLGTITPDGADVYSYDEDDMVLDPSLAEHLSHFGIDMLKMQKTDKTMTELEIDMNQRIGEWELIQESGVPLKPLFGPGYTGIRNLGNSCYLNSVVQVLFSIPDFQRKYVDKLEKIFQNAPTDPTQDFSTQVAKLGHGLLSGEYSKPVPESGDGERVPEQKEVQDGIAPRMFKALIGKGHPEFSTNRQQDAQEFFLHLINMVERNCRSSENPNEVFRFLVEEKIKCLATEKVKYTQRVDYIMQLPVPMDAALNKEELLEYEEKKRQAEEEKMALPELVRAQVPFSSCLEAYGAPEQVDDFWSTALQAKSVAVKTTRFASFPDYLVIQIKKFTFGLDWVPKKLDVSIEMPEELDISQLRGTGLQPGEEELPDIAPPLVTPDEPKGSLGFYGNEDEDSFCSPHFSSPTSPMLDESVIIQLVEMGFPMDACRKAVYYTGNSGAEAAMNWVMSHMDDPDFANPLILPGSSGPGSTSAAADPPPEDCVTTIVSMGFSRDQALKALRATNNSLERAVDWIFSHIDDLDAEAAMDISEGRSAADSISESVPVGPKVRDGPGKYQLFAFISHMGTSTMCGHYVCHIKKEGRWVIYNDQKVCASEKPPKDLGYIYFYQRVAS
Description: as §1

[4] = test system: H1299 cells; assay: Dox-induced cell death, colorimetric cell viability, H1299; type: cell-based
Description: (§2) Figure 7 CR enhances Dox sensitivity of cancer cells. (a,b) Enhancement of Dox-induced apoptosis of cancer cells by CR treatment. Dox–induced apoptosis of H1299 (a) and HCT116 (b) was quantified by colorimetric cell viability after treating 10 µM CR for 12 h followed by 12h treatment of Dox (0.0–5.0 µM). […] Caspase activity was quantified by luminogenic caspase activity assay. […] All error bars represent the standard deviation from at least four independent experiments. Statistical significance was calculated by the Student’s t-test (** p < 0.01, *** p < 0.001).
(§3) Cell viability assays were performed as described previously. For the caspase assays, the media were removed, and cells were lysed in 200 µL lysis buffer containing 50 µL Caspase Glo 3/7 solution and incubated for 15 min. Results were observed by measuring the luminescence signal using KOMM-Nr (Berthold Technologies, Bad Wildbad, Germany) and normalized with the total protein concentration measured by the Bradford assay. Data were analyzed using GraphPad Prism version 6.0 for Windows with two tail t-test for statistical data analysis […]
(§4) Figure S8. NSC697923 enhances Dox sensitivity of cancer cells. (a, b) Effect of NSC697923 to cancer cells’ viability in Dox treatment . Dox–induced cell death of H1299 ( a) and HCT116 ( b) was quantified by colorimetric cell viability assay after treating 5 µM NSC697923 for 12 h followed by 12h treatment of Dox (0.0 […]
(§5) NSC697923. Caspase activity was quantified by luminogenic caspase activity assay. All error bars represent the standard deviation from at least 4 independent experiments. *, P<0.05; **, P<0.01; ***, P<0.001.

[5] = test system: HCT116 cells; assay: Dox-induced cell death, colorimetric cell viability, HCT116; type: cell-based; conditions: for Effect on Dox-induced cell death, HCT116: 10 µM CR or 5 µM NSC697923 12 h, then Dox 1.25–5.0 μM 12 h
Description: as §2
as §3, with “assay.” for “assay. Data were analyzed using GraphPad Prism version 6.0 for Windows with two tail t-test for statistical data analysis”
as §4, §5

[6] = test system: H1299 cells; assay: Luminogenic caspase activity assay (Caspase Glo 3/7), H1299; type: cell-based; conditions: 10 µM CR or 5 µM NSC697923 with Dox
Description: as §2
as §3, with “assay.” for “assay. Data were analyzed using GraphPad Prism version 6.0 for Windows with two tail t-test for statistical data analysis”
as §4
(§6) NSC697923. Caspase activity was quantified by luminogenic caspase activity assay. […]

[7] = test system: HCT116 cells; assay: Luminogenic caspase activity assay (Caspase Glo 3/7), HCT116; type: cell-based; conditions: 10 µM CR or 5 µM NSC697923 with Dox
Description: as §2
as §3, with “assay.” for “assay. Data were analyzed using GraphPad Prism version 6.0 for Windows with two tail t-test for statistical data analysis”
as §4, §6

[8] = test system: H1299 cells; assay: Cytotoxicity, cell viability assay; type: cell-based; conditions: determined by cytotoxicity assays
Description: as §3
Figure S7. Cytotoxicity of CR to cancer cells. H1299 cells were cultured in 96 -well plates. CR was added to final concentrations of 0.0 – 50.0 µM, and the cells were incubated for 24 h followed by cell viability assay. All error bars represent the standard deviation from at least 4 independent experiments. Statistical comparisons between groups were determined by Student’s t -test. If p -values are less than 0.05, they are statistically significant . NS, not […]
(1 picture or pasted object on this page, not shown here)

[9] = test system: H1299 cells; assay: Dox-induced K48- and K63-polyubiquitination in cells (immunofluorescence staining, Western blot); type: cell-based; conditions: H1299, non-pretreated, 5 µM Dox
Description: Figure 6 CR inhibits Dox-induced ubiquitination in the cells. (a) Immunofluorescence staining of H1299 cells treated with or without 5 (+) and 10 (++) μM CR for 12 h followed by addition of Dox to a final concentration of 5 μM, with incubation for 12 h. The cells were subjected to immunofluorescence staining using the antibodies against K48 (αK48) and K63 polyubiquitins (αK63). (b) K48 or K63 polyubiquitin level in Figure 6a was quantified by fluorescence signal. At least seven random regions acquired in confocal images were sampled and normalized against DAPI intensity for quantification. (c) Immunoblots of samples in Figure 6a using the indicated antibodies. […] Statistical significance was calculated by the Student’s t-test (* p < 0.05, ** p < 0.01, *** p < 0.001).
Cells were seeded in the SPL 4 wells cell culture chamber slide 24 h before experiment. […] Subsequently, cells were incubated with primary antibody at 1/200 dilution in blocking buffer overnight and then washed with blocking buffer five times (5 min each) before incubation with fluorescence-conjugated secondary antibody at 1/200 dilution in blocking buffer for 1 h. […] Images acquired in confocal imaging were subjected to fluorescence intensity analysis using ImageJ [55]. Fluorescence signal representing a particular ubiquitin chain level was analyzed and normalized with the intensity of DAPI. […]

[10] = parameters: method as in PMID 27613091; conditions: previous study ref 35; cited from earlier work
[11] = 8 µM UCHL1, 5 µM GST-Ubiquitin-HA, 0–45 µM compound, read-out: IC50 UCHL1 (DUB activity)
[12] = 0.6 µM USP5, 5 µM GST-Ubiquitin-HA, 0–45 µM compound, read-out: IC50 USP5 (DUB activity)

Sequence of UCHL1 (Homo sapiens) (P09936 whole entry, other chains not shown): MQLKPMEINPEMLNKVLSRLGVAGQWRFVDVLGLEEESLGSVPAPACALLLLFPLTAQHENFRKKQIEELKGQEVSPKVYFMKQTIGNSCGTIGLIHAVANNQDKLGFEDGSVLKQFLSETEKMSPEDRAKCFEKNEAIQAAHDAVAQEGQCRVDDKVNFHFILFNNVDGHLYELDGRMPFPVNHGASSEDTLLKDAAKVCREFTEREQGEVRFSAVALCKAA

## Nc1ccc2c(O)c(N=Nc3ccc(N=Nc4ccc(N=Nc5cc(S(=O)(=O)O)c6cccc(S(=O)(=O)O)c6c5)c5ccccc45)c4ccc(S(=O)(=O)O)cc34)c(S(=O)(=O)O)cc2c1 [DB71, Direct blue 71]
[1]; [11]
  IC50: 33.7 ± 4.05 µM
[2]
  Kd: 20 ± 0.835 µM
[3]; [12]
  IC50: 13.7 ± 2.74 µM

## Cc1ccc(S(=O)(=O)c2ccc([N+](=O)[O-])o2)cc1 [NSC697923]
[4]; 10 µM CR or 5 µM NSC697923 12 h, then Dox 1.25–5.0 μM 12 h
  Effect on Dox-induced cell death, H1299: significantly enhanced Dox-induced cell death
[5]
  Effect on Dox-induced cell death, HCT116: only a synergistic effect at low concentrations of Dox
[5]; listed as NSC967923
  Effect on Dox-induced cell death, HCT116: significantly enhanced Dox-induced cell death
[6]
  Effect on caspase activity of Dox-treated H1299 cells: Enhanced caspase activity
[7]
  Effect on caspase activity of Dox-treated HCT116 cells: Enhanced caspase activity
[8]
  None-toxicity concentration: 5 µM

## COc1cc(-c2ccc(/N=N/c3c(S(=O)(=O)O)cc4cc(S(=O)(=O)O)cc(N)c4c3O)c(OC)c2)ccc1/N=N/c1c(S(=O)(=O)O)cc2cc(S(=O)(=O)O)cc(N)c2c1O [DB15, Direct blue 15]
[2]
  Kd: 60.3 ± 2.3 µM
[3]; [12]
  IC50: 32.5 ± 5 µM

## Cc1cc(-c2ccc(/N=N/c3c(S(=O)(=O)O)cc4cc(S(=O)(=O)O)cc(N)c4c3O)c(C)c2)ccc1/N=N/c1c(S(=O)(=O)O)cc2cc(S(=O)(=O)O)cc(N)c2c1O [TB, Trypan blue]
[2]
  Kd: 78.1 ± 4.02 µM
[3]; [12]
  IC50: > 45 µM

## COc1cccc2c1C(=O)c1c(O)c3c(c(O)c1C2=O)C[C@@](O)(C(=O)CO)C[C@@H]3O[C@H]1C[C@H](N)[C@H](O)[C@H](C)O1 [Dox, doxorubicin]
[4]; Dox 1.25 to 5.0 μM, 12 h
  Dox-induced cell death, Dox alone, H1299: proportional to the Dox concentration
[5]; Dox 1.25 to 5.0 μM, 12 h
  Dox-induced cell death, Dox alone, HCT116: proportional to the Dox concentration
[9]
  K48- and K63-polyubiquitination upon Dox alone: enhanced K48- and K63-polyubiquitination

## COc1cc(-c2ccc(/N=N/c3ccc4c(S(=O)(=O)O)cc(S(=O)(=O)O)c(N)c4c3O)c(OC)c2)ccc1/N=N/c1ccc2c(S(=O)(=O)O)cc(S(=O)(=O)O)c(N)c2c1O [CSB6B, Chicago Sky Blue 6B]
[1]
  IC50: 11.2 ± 1.37 µM
[10]
  Cell membrane penetration: not able to penetrate the cell membrane
[2]
  Kd: 12 ± 0.678 µM
[3]
  IC50: 6.52 ± 0.786 µM

## Cc1cc(-c2ccc(/N=N/c3ccc4c(S(=O)(=O)O)cc(S(=O)(=O)O)c(N)c4c3O)c(C)c2)ccc1/N=N/c1ccc2c(S(=O)(=O)O)cc(S(=O)(=O)O)c(N)c2c1O [EB, Evans blue]
[1]; [11]
  IC50: 18.1 ± 2.09 µM
[2]
  Kd: 13 ± 0.689 µM
[3]; [12]
  IC50: 9.33 ± 1.58 µM
